From PubChem BioAssay (NCI)
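Protocol summary: plate cells (96-well), add compound at 5 concentrations, incubate 48 h, interpolate endpoints linearly. At the GI50, growth is halved. At the TGI there is no net growth.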

Assays:
Assay in all cases: NCI tumour cell line growth inhibition, 48 h
KM12 colon = tested on: KM12 colon
A498 renal = tested on: A498 renal
SK-OV-3 ovarian = tested on: SK-OV-3 ovarian
HL-60(TB) leukemia = tested on: HL-60(TB) leukemia
SNB-75 CNS = tested on: SNB-75 CNS
COLO 205 colon = tested on: COLO 205 colon
NCI/ADR-RES ovarian = tested on: NCI/ADR-RES ovarian
MALME-3M melanoma = tested on: MALME-3M melanoma
CAKI-1 renal = tested on: CAKI-1 renal
SR leukemia = tested on: SR leukemia
HOP-92 NSCLC = tested on: HOP-92 NSCLC
HOP-62 NSCLC = tested on: HOP-62 NSCLC
PC-3 prostate = tested on: PC-3 prostate
MDA-MB-435 = tested on: MDA-MB-435
MOLT-4 leukemia = tested on: MOLT-4 leukemia
SK-MEL-28 melanoma = tested on: SK-MEL-28 melanoma
EKVX NSCLC = tested on: EKVX NSCLC
OVCAR-3 ovarian = tested on: OVCAR-3 ovarian
SF-295 CNS = tested on: SF-295 CNS
SF-539 CNS = tested on: SF-539 CNS
UACC-62 melanoma = tested on: UACC-62 melanoma
MDA-MB-468 breast = tested on: MDA-MB-468 breast
OVCAR-4 ovarian = tested on: OVCAR-4 ovarian
M14 melanoma = tested on: M14 melanoma
OVCAR-8 ovarian = tested on: OVCAR-8 ovarian
HCC-2998 colon = tested on: HCC-2998 colon
T-47D breast = tested on: T-47D breast
HS 578T breast = tested on: HS 578T breast
SF-268 CNS = tested on: SF-268 CNS
OVCAR-5 ovarian = tested on: OVCAR-5 ovarian
UO-31 renal = tested on: UO-31 renal
RPMI-8226 leukemia = tested on: RPMI-8226 leukemia
HT29 colon = tested on: HT29 colon
SK-MEL-5 melanoma = tested on: SK-MEL-5 melanoma
HCT-116 colon = tested on: HCT-116 colon
U251 CNS = tested on: U251 CNS
IGROV1 ovarian = tested on: IGROV1 ovarian
DU-145 prostate = tested on: DU-145 prostate
MCF7 breast = tested on: MCF7 breast
MDA-MB-231 breast = tested on: MDA-MB-231 breast
TK-10 renal = tested on: TK-10 renal
HCT-15 colon = tested on: HCT-15 colon
SW-620 colon = tested on: SW-620 colon
LOX IMVI melanoma = tested on: LOX IMVI melanoma
RXF 393 renal = tested on: RXF 393 renal
K-562 leukemia = tested on: K-562 leukemia
A549 NSCLC = tested on: A549 NSCLC
SNB-19 CNS = tested on: SNB-19 CNS
NCI-H23 lung = tested on: NCI-H23 lung
SN12C renal = tested on: SN12C renal
UACC-257 melanoma = tested on: UACC-257 melanoma
ACHN renal = tested on: ACHN renal
786-0 renal = tested on: 786-0 renal
NCI-H226 lung = tested on: NCI-H226 lung
NCI-H460 lung = tested on: NCI-H460 lung
SK-MEL-2 melanoma = tested on: SK-MEL-2 melanoma
CCRF-CEM leukemia = tested on: CCRF-CEM leukemia
NCI-H522 lung = tested on: NCI-H522 lung
BT-549 breast = tested on: BT-549 breast

## C#CCNC(=O)CCC(=O)OC[C@]12CC[C@@H](C(=C)C)[C@@H]1C1CC[C@@H]3[C@@]4(C)CCCNC(C)(C)[C@@H]4CC[C@@]3(C)[C@]1(C)CC2 (stereo partly drawn)
KM12 colon
  GI50: 8.73 µM
  TGI: 18.8 µM
A498 renal
  GI50: 10.3 µM
  TGI: 20.9 µM
SK-OV-3 ovarian
  GI50: 9.94 µM
  TGI: 20 µM
HL-60(TB) leukemia
  GI50: 2.37 µM
  TGI: 14 µM
SNB-75 CNS
  GI50: 9.12 µM
  TGI: 18.7 µM
COLO 205 colon
  GI50: 2.25 µM
  TGI: 7.29 µM
NCI/ADR-RES ovarian
  GI50: 5.48 µM
  TGI: 16.6 µM
MALME-3M melanoma
  GI50: 9.03 µM
  TGI: 18.5 µM
CAKI-1 renal
  GI50: 8.1 µM
  TGI: 17.2 µM
SR leukemia
  GI50: > 64.8 µM
  TGI: > 64.8 µM
HOP-92 NSCLC
  GI50: 7.54 µM
  TGI: 19 µM
HOP-62 NSCLC
  GI50: 11.7 µM
  TGI: 23.7 µM
PC-3 prostate
  GI50: 4.8 µM
  TGI: 16.3 µM
MDA-MB-435
  GI50: 6.9 µM
  TGI: 15.2 µM
MOLT-4 leukemia
  GI50: 2.42 µM
  TGI: 18.7 µM
SK-MEL-28 melanoma
  GI50: 8.2 µM
  TGI: 16.5 µM
EKVX NSCLC
  GI50: 6.5 µM
  TGI: 14.2 µM
OVCAR-3 ovarian
  GI50: 7.73 µM
  TGI: 18.2 µM
SF-295 CNS
  GI50: 3.54 µM
  TGI: 12.2 µM
SF-539 CNS
  GI50: 7.48 µM
  TGI: 15.7 µM
UACC-62 melanoma
  GI50: 9.04 µM
  TGI: 18.1 µM
MDA-MB-468 breast
  GI50: 2.21 µM
  TGI: 10.5 µM
OVCAR-4 ovarian
  GI50: 9.11 µM
  TGI: 20.8 µM
M14 melanoma
  GI50: 6.83 µM
  TGI: 19 µM
OVCAR-8 ovarian
  GI50: 11.1 µM
  TGI: 33.8 µM
HCC-2998 colon
  GI50: 2.55 µM
  TGI: 10.3 µM
T-47D breast
  GI50: 8.06 µM
  TGI: 21.1 µM
HS 578T breast
  GI50: 9.96 µM
  TGI: 24.2 µM
SF-268 CNS
  GI50: 10.5 µM
  TGI: 23.8 µM
OVCAR-5 ovarian
  GI50: 9.38 µM
  TGI: 17.9 µM
UO-31 renal
  GI50: 6.96 µM
  TGI: 14.9 µM
RPMI-8226 leukemia
  GI50: 4.15 µM
  TGI: 20.7 µM
HT29 colon
  GI50: 2.71 µM
  TGI: 13.9 µM
SK-MEL-5 melanoma
  GI50: 6.78 µM
  TGI: 14.4 µM
HCT-116 colon
  GI50: 3.31 µM
  TGI: 27.4 µM
U251 CNS
  GI50: 6.62 µM
  TGI: 16.8 µM
IGROV1 ovarian
  GI50: 7.29 µM
  TGI: 16.3 µM
DU-145 prostate
  GI50: 10 µM
  TGI: 21.5 µM
MCF7 breast
  GI50: 2.36 µM
  TGI: 9.66 µM
MDA-MB-231 breast
  GI50: 8.83 µM
  TGI: 17.7 µM
TK-10 renal
  GI50: 10.1 µM
  TGI: 22 µM
HCT-15 colon
  GI50: 3.89 µM
  TGI: 12.4 µM
SW-620 colon
  GI50: 7.25 µM
  TGI: 16.7 µM
LOX IMVI melanoma
  GI50: 1.23 µM
  TGI: 2.83 µM
RXF 393 renal
  GI50: 3.51 µM
  TGI: 13.6 µM
K-562 leukemia
  GI50: 1.78 µM
  TGI: 16.3 µM
A549 NSCLC
  GI50: 7.12 µM
  TGI: 16.7 µM
SNB-19 CNS
  GI50: 8.91 µM
  TGI: 17.6 µM
NCI-H23 lung
  GI50: 7.89 µM
  TGI: 16.1 µM
SN12C renal
  GI50: 7.89 µM
  TGI: 16.7 µM
UACC-257 melanoma
  GI50: 2.51 µM
  TGI: 9.16 µM
ACHN renal
  GI50: 10.1 µM
  TGI: 18.9 µM
786-0 renal
  GI50: 8.29 µM
  TGI: 23.6 µM
NCI-H226 lung
  GI50: 7.58 µM
  TGI: 18.3 µM
NCI-H460 lung
  GI50: 7.89 µM
  TGI: 18.6 µM
SK-MEL-2 melanoma
  GI50: 11.7 µM
  TGI: 23.3 µM
CCRF-CEM leukemia
  GI50: 4.24 µM
  TGI: 37.1 µM
NCI-H522 lung
  GI50: 11.7 µM
  TGI: 25.4 µM
BT-549 breast
  GI50: 11.3 µM
  TGI: 21.1 µM
